{
  "source": "patent US20240415791A1",
  "about": "“Therapeutic methods and compositions for treating cancer using devimistat and a fatty acid oxidation inhibitor, a tyrosine kinase inhibitor, a glutaminase inhibitor, and/or a glycolysis inhibitor” (Cornerstone Pharmaceuticals, Inc., priority 2021, published 2024)",
  "key": {"[1]": {"settings": "cited from earlier work"}, "[2]": {"assay": "Oral bioavailability / plasma pharmacokinetics of devimistat formulations in mice", "parameters": "species or system BALB/c nude mice", "settings": "mouse, in vivo", "experimental": "[…]; 5 mL/kg; Ex. 7A); (2) 5 μL/g IP injection of the triethanolamine/dextrose aqueous solution of Example 7 (25 mg/kg; 5 mL/kg; 7A); (3) 5 μL/g oral administration of the Eudragit L100 SDD suspension of Example 7 (100 mg/kg; 5 mL/kg; 7B); (4) 5 μL/g oral administration of the HPMCAS-M SDD suspension of Example 7 (100 mg/kg; 5 mL/kg; 7C); (5) 5 μL/g oral administration of the 20 mg/mL devimistat suspension of Example 7 (100 mg/kg; 5 mL/kg; 7D); or (6) 10 μL/g oral administration of the 10 mg/mL SOLUTOL solution of Example 7 (100 mg/kg; 10 mL/kg; 7E). In each experiment, about 80 μL of blood was collected from one subgroup of 4 male and 4 female mice at 0.083, 1, 4, and 24 hours after dosing, and from the other subgroup of 4 male and 4 female mice at 0.5, 2, and 8 hours. Plasma from the collected blood samples was analyzed by LC-MS/MS for the presence of devimistat."}, "BxPC-3 xenografts": {"system": "BxPC-3 xenografts", "assay": "Oral devimistat in BxPC3 pancreatic cancer xenografts", "assay_type": "in vivo, mice", "settings": "weekly for 4 weeks", "experimental": "An acclimation period of 7 days was allowed between the arrival of the animal at the study site before tumor inoculation and experimentation. Mice were inoculated subcutaneously (SC) in the right flank with 2×10^6 human H460 NSCLC or BxPC3 pancreatic cancer cells that were suspended in 0.1 mL of Dulbeco's Phosphate Buffered Salt (PBS) solution using a 1 cc syringe with a 27⅝ gauge needle. Tumor dimensions (length and width) were measured daily before, during and after treatment (using Vernier calipers) and the tumor volume was calculated using the prolate ellipsoid formula: (length×width^2)/2. Treatment with test or control articles began 8 days post tumor cell implantation when the tumor was approximately 300 mm^3.\nA similar study was conducted in CD-1 nude mice (n=9) inoculated with 2×10^6 BxPC-3 cells. The study was initiated when tumors reached an average size of 150 mm^3 (day 0) and devimistat was administered at an oral dose of […] for 4 weeks. A comparator arm (n=9) was conducted with IP treatment at a weekly dose of 25 mg/kg."}, "[3]": {"system": "human H460 NSCLC xenografts", "assay": "Oral devimistat in H460 NSCLC xenografts", "assay_type": "in vivo, mice", "settings": "oral 100 mg/kg on days 8, 15, 22, 29; vs 5% dextrose or untreated", "experimental": "Human H460 NSCLC cells were obtained from American Type Cell Culture (ATCC) (catalog no. HTB-177, Manassas, VA). These cells tested negative for viral contamination using the Mouse Antibody Production (MAP) test, performed by Charles River Labs Molecular Division, upon the receipt of the tumor cells from ATCC. The tumor cells were maintained at 37° C. in a humidified 5% CO2 atmosphere in T225 tissue culture flasks containing 50 mL of Roswell Park Memorial Institute (RPMI)-1640 solution with 10% Fetal Bovine Serum (FBS) and 2 mM L-glutamine. Cells were split at a ratio of 1:10 every 2-3 days by trypsinization and resuspended in fresh medium in a new flask. Cells were harvested for experiments in the same way at 70-90% confluency.\nCD1-Nu/Nu female mice, ˜4-6 weeks old were obtained from Charles River Laboratories. Mice were housed 5 to a cage in a micro-isolator room in the Department of Animal Laboratory Research of New York State University (SUNY) at Stony Brook. Light-dark cycles were 12 h each daily, with light from 7 a.m. to 7 p.m. […]\nAn acclimation period of 7 days was allowed between the arrival of the animal at the study site before tumor inoculation and experimentation. […] Tumor dimensions (length and width) were measured daily before, during and after treatment (using Vernier calipers) and the tumor volume was calculated using the prolate ellipsoid formula: (length×width^2)/2. […]"}, "[4]": {"system": "BxPC3, PANC1, AsPC1 and H460 cells", "assay": "3H-2-deoxyglucose uptake by tumor cell lines", "assay_type": "cell-based, human", "settings": "240 μM devimistat, complete RPMI, two hours", "experimental": "Cells were treated in complete RPMI with devimistat (240 μM) for a total of 2 hours, with a pulse of 1,2-^3H 2-deoxyglucose at the end of this treatment for the times indicated in Example 1D and FIG. 1D. Cells were harvested, washed, and counted to asses uptake. More particularly, seeding, drug treatment, and 2DG uptake were all performed in RPMI medium supplemented with 10% FBS for BXPC3, H460 and PANC1 cells and DMEM+10% FBS for AsPC1. All treatments were done in triplicate. BxPC3 cells were seeded at 500,000 cells per 35-mm dish; H460, PANC1, and AsPC1 cells were plated in 6 well plates at 300,000 cells per well for PANC1 and at 500,000 cells per well for AsPC1 and H460. […]\nAt the end of the 2 hour drug treatment, plates were placed on ice, medium removed and plates were washed three times with ice cold medium without FBS. […] Lysates were transferred into scintillation vials containing 3 mL of scintillation cocktail and counted.\nD. Pulse analysis of ^3H-2-deoxyglucose (2DG) uptake by tumor cell lines. ˜8×10^5 cells were treated with 240 μM devimistat or solvent control in complete RPMI for two hours and pulse labeled by addition of 0.5 μCi of ^3H-2DG for the final 0.25 or 1 hour of treatment as indicated in FIG. 1D. Cells were washed in ice-cold RPMI without serum, lysed, and counted (see Methods, above)."}},
  "data": [
    {"smiles": "O=C(O)CCCCC(CCSCc1ccccc1)SCc1ccccc1", "note": "(stereo not drawn) [devimistat, 6,8-bis(benzylsulfanyl)octanoic acid]", "values": [
      {"measurement": "half-life after IV dosing", "setting": "[1]; IV dosing", "result": "1 to 2", "unit": "h"},
      {"measurement": "peak serum concentration after clinical infusion", "setting": "[1]; clinical IV infusion", "result": "~100", "unit": "µM"},
      {"measurement": "oral bioavailability (in words)", "setting": "[2]", "result": "orally bioavailable"},
      {"measurement": "tumor growth in BxPC3 xenografts", "setting": "BxPC-3 xenografts", "result": "especially pronounced"},
      {"measurement": "tumor growth in H460 NSCLC xenografts", "setting": "[3]", "result": "grew much more slowly"},
      {"measurement": "3H-2-deoxyglucose (glucose) uptake", "setting": "[4]", "result": "accelerated glucose uptake"}
    ]}
  ]
}
